Experimental data as given in patent US12466813B2, “PRC1 inhibitors and methods of treatment therewith” (The Regents of the University of Michigan, priority 2018, dated 2025).
pKd: −log10 of the molar value.

Molecular target: T1, RING1B-BMI1 (Homo sapiens, UniProt Q99496)
T1 sequence (Q99496 1-336): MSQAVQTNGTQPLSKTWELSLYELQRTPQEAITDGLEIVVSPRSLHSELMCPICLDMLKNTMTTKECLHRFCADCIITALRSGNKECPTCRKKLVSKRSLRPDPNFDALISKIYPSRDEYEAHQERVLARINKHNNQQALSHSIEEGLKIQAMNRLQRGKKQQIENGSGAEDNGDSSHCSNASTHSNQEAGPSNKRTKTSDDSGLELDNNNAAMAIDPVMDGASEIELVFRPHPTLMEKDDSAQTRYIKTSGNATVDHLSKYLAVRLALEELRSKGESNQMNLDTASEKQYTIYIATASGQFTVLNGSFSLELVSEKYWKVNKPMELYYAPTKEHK
T1 sequence (P35226 1-326 partner): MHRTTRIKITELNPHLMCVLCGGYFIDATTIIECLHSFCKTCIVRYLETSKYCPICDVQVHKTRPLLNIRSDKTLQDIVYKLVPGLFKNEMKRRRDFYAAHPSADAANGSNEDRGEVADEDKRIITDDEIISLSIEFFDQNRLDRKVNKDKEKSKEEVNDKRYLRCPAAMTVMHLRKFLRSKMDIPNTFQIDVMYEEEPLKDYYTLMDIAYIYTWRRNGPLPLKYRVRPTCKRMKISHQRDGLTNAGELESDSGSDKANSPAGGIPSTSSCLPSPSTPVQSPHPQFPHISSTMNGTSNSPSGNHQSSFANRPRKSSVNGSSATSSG
Experiment: KD classes of Table A (direct binding to Ring1B-Bmi1)
Conditions: class given in Table A
Method: Experiments were conducted during development of embodiments herein to develop small molecule inhibitors of PRC1 by targeting the Ring1B-BMI1 E3 ligase. These compounds bind directly to Ring1B-Bmi1 with low-micromolar affinity and inhibit PRC1 in vitro and in cells. […] Experiments were conducted during development of embodiments herein to test COMPOUND 1 in leukemia stem cell models represented by TEX cells (Ref. 22; herein incorporated by reference in its entirety) and M9-ENL1 cells (Ref. 23; herein incorporated by reference in its entirety). […] In some embodiments, COMPOUND 1 and COMPOUND 1 analogs are find use as agents in targeting leukemia and other cancer stem cells.
The compounds listed in Table A have been synthesized and/or tested for activity in inhibiting activity of PRC1 complex, and are within the scope herein.

In the case of `CCc1c(-c2c(C)ccc3[nH]ccc23)[nH]c(C(=O)O)c1-c1cccc2[nH]ccc12` [compound 2], the pKd was > 4.70.

`COc1cc(Cl)c(-c2c(C(=O)O)[nH]c(-c3cccc4[nH]ccc34)c2C(C)C)cc1[N+](=O)[O-]` [compound 3] was tested, and the pKd was > 4.70.

In the case of `CC(C)c1c(-c2cccc3[nH]ccc23)[nH]c(C(=O)O)c1-c1cc([N+](=O)[O-])c(O)cc1Cl` [compound 4], the pKd was > 4.70.

`COc1cc(Cl)c(-c2c(C(=O)O)[nH]c(-c3cccc4[nH]ccc34)c2C(C)C)cc1N` [compound 5] was tested, and the pKd was > 4.70.

In the case of `CCc1c(-c2c(C)ccc3[nH]ccc23)[nH]c(C(=O)O)c1-c1c(Cl)ccc2[nH]ccc12` [compound 6], the pKd was > 4.70.

For `Cc1ccc2[nH]ccc2c1-c1[nH]c(C(=O)O)c(-c2c(Cl)ccc3[nH]ccc23)c1C(C)C` [compound 7], the pKd was > 4.70.

In the case of `Cc1cc(-c2[nH]c(C(=O)O)c(-c3c(Cl)ccc4[nH]ccc34)c2C(C)C)c2cc[nH]c2c1` [compound 8], the pKd was > 4.70.

In the case of `CCc1cc(-c2[nH]c(C(=O)O)c(-c3c(Cl)ccc4[nH]ccc34)c2C(C)C)c2cc[nH]c2c1` [compound 9], the pKd was > 4.70.

With `CC(C)c1c(-c2cc(C(F)(F)F)cc3[nH]ccc23)[nH]c(C(=O)O)c1-c1c(Cl)ccc2[nH]ccc12` [compound 10] the pKd was > 4.70.

For `COc1cc(-c2[nH]c(C(=O)O)c(-c3c(Cl)ccc4[nH]ccc34)c2C(C)C)c2cc[nH]c2c1` [compound 11], the pKd was > 4.70.

With `CC(C)c1c(-c2cc(O)cc3[nH]ccc23)[nH]c(C(=O)O)c1-c1c(Cl)ccc2[nH]ccc12` [compound 12] the pKd was > 4.70.

In the case of `CC(C)c1c(-c2cc(Cl)cc3[nH]ccc23)[nH]c(C(=O)O)c1-c1c(Cl)ccc2[nH]ccc12` [compound 13], the pKd was > 4.70.

For `CC(C)c1c(-c2cc(F)cc3[nH]ccc23)[nH]c(C(=O)O)c1-c1c(Cl)ccc2[nH]ccc12` [compound 14], the pKd was > 4.70.

With `CCc1c(-c2cccc3[nH]ccc23)[nH]c(C(=O)O)c1-c1ccc(OC)cc1Br` [compound 15] the pKd was > 4.70.

For `CCc1c(-c2cccc3[nH]ccc23)[nH]c(C(=O)O)c1-c1c(Cl)ccc2[nH]ccc12` [compound 16], the pKd was > 4.70.

For `CC(C)c1c(-c2cccc3[nH]ccc23)[nH]c(C(=O)O)c1-c1ccccc1Cl` [compound 17], the pKd was > 4.70.

In the case of `CCc1c(-c2cccc3[nH]ccc23)[nH]c(C(=O)O)c1-c1c(Cl)cc(OC)c2[nH]ccc12` [compound 18], the pKd was > 4.70.

In the case of `COc1ccc(-c2c(C(=O)O)[nH]c(-c3cccc4[nH]ccc34)c2C(C)C)c(Cl)c1` [compound 19], the pKd was > 4.70.

In the case of `CCc1c(-c2cccc3[nH]ccc23)[nH]c(C(=O)O)c1-c1cccc2[nH]ccc12` [compound 20], the pKd was > 4.70.

For `CCc1c(-c2cccc3[nH]ccc23)[nH]c(C(=O)O)c1-c1cccc2c1ccn2CC` [compound 21], the pKd was > 4.70.

With `CCc1c(-c2ccc(C)c3[nH]ccc23)[nH]c(C(=O)O)c1-c1cccc2[nH]ccc12` [compound 22] the pKd was > 4.70.

`CCOc1ccc(-c2c(C(=O)O)[nH]c(-c3cccc4[nH]ccc34)c2CC)c(Cl)c1` [compound 23] was tested, and the pKd was > 4.70.

For `CCc1c(-c2cccc3[nH]ccc23)[nH]c(C(=O)O)c1-c1ccc(OC)cc1Cl` [compound 24], the pKd was > 4.70.

For `CCc1c(-c2cccc3[nH]ccc23)[nH]c(C(=O)O)c1-c1ccc2cc[nH]c2c1` [compound 25], the pKd was > 4.70.

In the case of `Cc1c[nH]c2cccc(-c3[nH]c(C(=O)O)c(-c4c(Cl)ccc5[nH]ccc45)c3C(C)C)c12` [compound 26], the pKd was > 4.70.

`CC(C)c1c(-c2cccc3[nH]cc(CCO)c23)[nH]c(C(=O)O)c1-c1c(Cl)ccc2[nH]ccc12` [compound 27] was tested, and the pKd was > 4.70.

`CC(C)c1c(-c2cc(F)cc3[nH]cc(CCO)c23)[nH]c(C(=O)O)c1-c1c(Cl)ccc2[nH]ccc12` [compound 28] was tested, and the pKd was > 4.70.

For `O=C(O)c1[nH]c(-c2cccc3[nH]ccc23)c(C2CC2)c1-c1cccc2[nH]ccc12` [compound 29], the pKd was > 4.70.
